Results published in PubChem BioAssay (NCI).
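A five-concentration, 48-hour dose response in 96-well plates underlies each endpoint, interpolated linearly between surrounding concentrations. Here, GI50 denotes the concentration required for 50% inhibition of growth. TGI: concentration producing complete growth inhibition.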

Experiments:
Assay in all cases: inhibition of tumour cell growth, NCI panel, 48 h
SR leukemia = test system: SR leukemia
MDA-MB-231 breast = test system: MDA-MB-231 breast
HCT-116 colon = test system: HCT-116 colon
RXF 393 renal = test system: RXF 393 renal
SK-OV-3 ovarian = test system: SK-OV-3 ovarian
HT29 colon = test system: HT29 colon
KM12 colon = test system: KM12 colon
SN12C renal = test system: SN12C renal
M14 melanoma = test system: M14 melanoma
IGROV1 ovarian = test system: IGROV1 ovarian
HOP-62 NSCLC = test system: HOP-62 NSCLC
RPMI-8226 leukemia = test system: RPMI-8226 leukemia
UACC-62 melanoma = test system: UACC-62 melanoma
ACHN renal = test system: ACHN renal
PC-3 prostate = test system: PC-3 prostate
SK-MEL-2 melanoma = test system: SK-MEL-2 melanoma
MCF7 breast = test system: MCF7 breast
DU-145 prostate = test system: DU-145 prostate
SK-MEL-5 melanoma = test system: SK-MEL-5 melanoma
OVCAR-4 ovarian = test system: OVCAR-4 ovarian
786-0 renal = test system: 786-0 renal
SK-MEL-28 melanoma = test system: SK-MEL-28 melanoma
MALME-3M melanoma = test system: MALME-3M melanoma
HCT-15 colon = test system: HCT-15 colon
OVCAR-8 ovarian = test system: OVCAR-8 ovarian
LOX IMVI melanoma = test system: LOX IMVI melanoma
BT-549 breast = test system: BT-549 breast
HL-60(TB) leukemia = test system: HL-60(TB) leukemia
HCC-2998 colon = test system: HCC-2998 colon
UO-31 renal = test system: UO-31 renal
K-562 leukemia = test system: K-562 leukemia
U251 CNS = test system: U251 CNS
NCI-H226 lung = test system: NCI-H226 lung
A498 renal = test system: A498 renal
SNB-19 CNS = test system: SNB-19 CNS
HS 578T breast = test system: HS 578T breast
SF-268 CNS = test system: SF-268 CNS
SW-620 colon = test system: SW-620 colon
NCI-H23 lung = test system: NCI-H23 lung
SF-295 CNS = test system: SF-295 CNS
CAKI-1 renal = test system: CAKI-1 renal
SNB-75 CNS = test system: SNB-75 CNS
SF-539 CNS = test system: SF-539 CNS
COLO 205 colon = test system: COLO 205 colon
OVCAR-5 ovarian = test system: OVCAR-5 ovarian
T-47D breast = test system: T-47D breast
TK-10 renal = test system: TK-10 renal
MDA-MB-435 = test system: MDA-MB-435
HOP-92 NSCLC = test system: HOP-92 NSCLC
NCI-H460 lung = test system: NCI-H460 lung
OVCAR-3 ovarian = test system: OVCAR-3 ovarian
NCI/ADR-RES ovarian = test system: NCI/ADR-RES ovarian
MOLT-4 leukemia = test system: MOLT-4 leukemia
CCRF-CEM leukemia = test system: CCRF-CEM leukemia
A549 NSCLC = test system: A549 NSCLC
UACC-257 melanoma = test system: UACC-257 melanoma
NCI-H522 lung = test system: NCI-H522 lung
EKVX NSCLC = test system: EKVX NSCLC

## CCCC(c1nnnn1C1CCCCC1)N1CCN(C(=O)c2ccco2)CC1 (configuration not stated)
SR leukemia
  GI50: > 100 µM
  TGI: > 100 µM
MDA-MB-231 breast
  GI50: > 100 µM
  TGI: > 100 µM
HCT-116 colon
  GI50: > 100 µM
  TGI: > 100 µM
RXF 393 renal
  GI50: > 100 µM
  TGI: > 100 µM
SK-OV-3 ovarian
  GI50: > 100 µM
  TGI: > 100 µM
HT29 colon
  GI50: > 100 µM
  TGI: > 100 µM
KM12 colon
  GI50: > 100 µM
  TGI: > 100 µM
SN12C renal
  GI50: > 100 µM
  TGI: > 100 µM
M14 melanoma
  GI50: > 100 µM
  TGI: > 100 µM
IGROV1 ovarian
  GI50: > 100 µM
  TGI: > 100 µM
HOP-62 NSCLC
  GI50: > 100 µM
  TGI: > 100 µM
RPMI-8226 leukemia
  GI50: > 100 µM
  TGI: > 100 µM
UACC-62 melanoma
  GI50: > 100 µM
  TGI: > 100 µM
ACHN renal
  GI50: > 100 µM
  TGI: > 100 µM
PC-3 prostate
  GI50: > 100 µM
  TGI: > 100 µM
SK-MEL-2 melanoma
  GI50: > 100 µM
  TGI: > 100 µM
MCF7 breast
  GI50: > 100 µM
  TGI: > 100 µM
DU-145 prostate
  GI50: > 100 µM
  TGI: > 100 µM
SK-MEL-5 melanoma
  GI50: > 100 µM
  TGI: > 100 µM
OVCAR-4 ovarian
  GI50: > 100 µM
  TGI: > 100 µM
786-0 renal
  GI50: > 100 µM
  TGI: > 100 µM
SK-MEL-28 melanoma
  GI50: > 100 µM
  TGI: > 100 µM
MALME-3M melanoma
  GI50: > 100 µM
  TGI: > 100 µM
HCT-15 colon
  GI50: > 100 µM
  TGI: > 100 µM
OVCAR-8 ovarian
  GI50: > 100 µM
  TGI: > 100 µM
LOX IMVI melanoma
  GI50: > 100 µM
  TGI: > 100 µM
BT-549 breast
  GI50: > 100 µM
  TGI: > 100 µM
HL-60(TB) leukemia
  GI50: > 100 µM
  TGI: > 100 µM
HCC-2998 colon
  GI50: > 100 µM
  TGI: > 100 µM
UO-31 renal
  GI50: > 100 µM
  TGI: > 100 µM
K-562 leukemia
  GI50: > 100 µM
  TGI: > 100 µM
U251 CNS
  GI50: > 100 µM
  TGI: > 100 µM
NCI-H226 lung
  GI50: > 100 µM
  TGI: > 100 µM
A498 renal
  GI50: > 100 µM
  TGI: > 100 µM
SNB-19 CNS
  GI50: > 100 µM
  TGI: > 100 µM
HS 578T breast
  GI50: > 100 µM
  TGI: > 100 µM
SF-268 CNS
  GI50: > 100 µM
  TGI: > 100 µM
SW-620 colon
  GI50: > 100 µM
  TGI: > 100 µM
NCI-H23 lung
  GI50: > 100 µM
  TGI: > 100 µM
SF-295 CNS
  GI50: > 100 µM
  TGI: > 100 µM
CAKI-1 renal
  GI50: > 100 µM
  TGI: > 100 µM
SNB-75 CNS
  GI50: > 100 µM
  TGI: > 100 µM
SF-539 CNS
  GI50: > 100 µM
  TGI: > 100 µM
COLO 205 colon
  GI50: > 100 µM
  TGI: > 100 µM
OVCAR-5 ovarian
  GI50: > 100 µM
  TGI: > 100 µM
T-47D breast
  GI50: > 100 µM
  TGI: > 100 µM
TK-10 renal
  GI50: > 100 µM
  TGI: > 100 µM
MDA-MB-435
  GI50: > 100 µM
  TGI: > 100 µM
HOP-92 NSCLC
  GI50: > 100 µM
  TGI: > 100 µM
NCI-H460 lung
  GI50: > 100 µM
  TGI: > 100 µM
OVCAR-3 ovarian
  GI50: > 100 µM
  TGI: > 100 µM
NCI/ADR-RES ovarian
  GI50: > 100 µM
  TGI: > 100 µM
MOLT-4 leukemia
  GI50: > 100 µM
  TGI: > 100 µM

## Cc1cc(NN)nc2n[nH]c(N)c12
SR leukemia
  TGI: > 100 µM
MDA-MB-231 breast
  TGI: > 100 µM
HCT-116 colon
  TGI: > 100 µM
RXF 393 renal
  TGI: > 100 µM
SK-OV-3 ovarian
  TGI: > 100 µM
HT29 colon
  TGI: > 100 µM
KM12 colon
  TGI: > 100 µM
SN12C renal
  TGI: > 100 µM
M14 melanoma
  TGI: > 100 µM
IGROV1 ovarian
  TGI: > 100 µM
HOP-62 NSCLC
  TGI: > 100 µM
RPMI-8226 leukemia
  TGI: > 100 µM
UACC-62 melanoma
  TGI: > 100 µM
ACHN renal
  TGI: > 100 µM
PC-3 prostate
  TGI: > 100 µM
CCRF-CEM leukemia
  TGI: > 100 µM
SK-MEL-2 melanoma
  TGI: > 100 µM
MCF7 breast
  TGI: > 100 µM
DU-145 prostate
  TGI: > 100 µM
SK-MEL-5 melanoma
  TGI: > 100 µM
OVCAR-4 ovarian
  TGI: > 100 µM
786-0 renal
  TGI: > 100 µM
SK-MEL-28 melanoma
  TGI: > 100 µM
MALME-3M melanoma
  TGI: > 100 µM
HCT-15 colon
  TGI: > 100 µM
OVCAR-8 ovarian
  TGI: > 100 µM
LOX IMVI melanoma
  TGI: > 100 µM
BT-549 breast
  TGI: > 100 µM
UO-31 renal
  TGI: > 100 µM
K-562 leukemia
  TGI: > 100 µM
U251 CNS
  TGI: > 100 µM
NCI-H226 lung
  TGI: > 100 µM
A498 renal
  TGI: > 100 µM
SNB-19 CNS
  TGI: > 100 µM
HS 578T breast
  TGI: > 100 µM
SF-268 CNS
  TGI: > 100 µM
A549 NSCLC
  TGI: > 100 µM
SW-620 colon
  TGI: > 100 µM
NCI-H23 lung
  TGI: > 100 µM
SF-295 CNS
  TGI: > 100 µM
CAKI-1 renal
  TGI: > 100 µM
SNB-75 CNS
  TGI: > 100 µM
SF-539 CNS
  TGI: > 100 µM
COLO 205 colon
  TGI: > 100 µM
OVCAR-5 ovarian
  TGI: > 100 µM
T-47D breast
  TGI: > 100 µM
TK-10 renal
  TGI: > 100 µM
MDA-MB-435
  TGI: > 100 µM
HOP-92 NSCLC
  TGI: > 100 µM
UACC-257 melanoma
  TGI: > 100 µM
NCI-H460 lung
  TGI: > 100 µM
NCI-H522 lung
  TGI: > 100 µM
OVCAR-3 ovarian
  TGI: > 100 µM
NCI/ADR-RES ovarian
  TGI: > 100 µM
EKVX NSCLC
  TGI: > 100 µM
MOLT-4 leukemia
  TGI: > 100 µM
